Test results: patent US8648066B2 (Exelixis, Inc., priority 2009, dated 2014)

Target: mTOR/GbL/Raptor (mTORC1) (Homo sapiens, UniProt P42345)
Experiment: mTOR/GbL/Raptor (mTORC1) ELISA assay
Type: biochemical
Conditions: phosphorylation of 4E-BP1; 0.2 nM mTORC1, 10 μM ATP; read-out: IC50 in this assay (mTORC1 ELISA)
Procedure, shortened: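 ELISA read-out: phospho-4E-BP1 captured on Ni-chelate plates and detected with anti-phospho antibody plus HRP-anti-IgG luminescence. The kinase step ran 120 min at ambient temperature with 0.2 nM human mTORC1, 10 µM ATP, 50 nM His-4E-BP1, 10 mM MnCl2, pH 7.2 HEPES.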

Row | Compound | IC50
1 | CN1C[C@@H]2C[C@H]1CN2S(=O)(=O)c1cc(-c2ccc3c(c2)CN(c2ncnc4c2CC(C)(C)CC4)CCO3)cnc1N [Example 518, 5-[4-(6,6-dimethyl-5,6,7,8-tetrahydroquinazolin-4-yl)-2,3,4,5-tetrahydro-1,4-benzoxazepin-7-yl]-3-{[(1S,4S)-5-methyl-2,5-diazabicyclo[2.2.1]hept-2-yl]sulfonyl}pyridin-2-amine] | 50 to 250 nM
2 | Cc1ccc2ncnc(N3CCOc4ccc(-c5cnc6nc(N)[nH]c6c5)cc4C3)c2c1 [Example 218, 6-[4-(6-methylquinazolin-4-yl)-2,3,4,5-tetrahydro-1,4-benzoxazpin-7-yl]-1H-imidazo[4,5-b]pyridin-2-amine] | ≤ 10 nM
3 | CCNc1nc2ccc(-c3ccc4c(c3)CN(c3ccnc5cc(F)ccc35)CCO4)cc2[nH]1 [Example 268, N-ethyl-6-[4-(7-fluoroquinolin-4-yl)-2,3,4,5-tetrahydro-1,4-benzoxazepin-7-yl]-1H-benzimidazol-2-amine] | 50 to 250 nM
4 | Cc1c(N2CCOc3ccc(-c4cnc5nc(C6CC6)[nH]c5c4)cc3C2)ncnc1N(C)[C@@H](C)c1ccccc1 [Example 536, 6-[7-(2-cyclopropyl-1H-imidazo[4,5-b]pyridin-6-yl)-2,3-dihydro-1,4-benzoxazepin-4(5H)-yl]-N,5-dimethyl-N-[(1S)-1-phenylethyl]pyrimidin-4-amine] | 50 to 250 nM
5 | CC(N)CNS(=O)(=O)c1cc(-c2ccc3c(c2)CN(c2ncnc4c2CC(C)(C)CC4)CCO3)cnc1N (centres unmarked) [Example 410, 2-amino-N-(2-aminopropyl)-5-[4-(6,6-dimethyl-5,6,7,8-tetrahydroquinazolin-4-yl)-2,3,4,5-tetrahydro-1,4-benzoxazepin-7-yl]pyridine-3-sulfonamide] | 50 to 250 nM
6 | Cc1nc2ccc(-c3ccc4c(c3)CN(c3ccnc5cc(C#N)ccc35)CCO4)cc2[nH]1 [Example 242, 4-[7-(2-methyl-1H-benzimidazol-6-yl)-2,3-dihydro-1,4-benzoxazepin-4(5H)-yl]quinolin-7-carbonitrile] | ≥ 2000 nM
7 | CCC1CCc2ncnc(N3CCOc4ccc(-c5cnc6nc(C)[nH]c6c5)cc4C3)c2C1 (centres unmarked) [Example 483, 4-(6-ethyl-5,6,7,8-tetrahydroquinazolin-4-yl)-7-(2-methyl-1H-imidaz[4,5-b]pyridin-6-yl)-2,3,4,5-tetrahydro-1,4-benzoxazepine] | ≤ 10 nM
8 | CC1(C)CCc2ncnc(N3CCOc4ccc(-c5cnc(N)c(S(=O)(=O)NCC6CCCNC6)c5)cc4C3)c2C1 (centres unmarked) [Example 377, 2-amino-5-[4-(6,6-dimethyl-5,6,7,8-tetrahydroquinazolin-4-yl)-2,3,4,5-tetrahydro-1,4-benzoxazepin-7-yl]-N-(piperidin-3-ylmethyl)pyridine-3-sulfonamide] | 50 to 250 nM
9 | Cc1nc2ncc(-c3ccc4c(c3)CN(c3nc(CNC5CCCC5)nc5c3CC(C)(C)CC5)CCO4)cc2[nH]1 [Example 598, N-({6,6-dimethyl-4-[7-(2-methyl-1H-imidazo[4,5-b]pyridin-6-yl)-2,3-dihydro-1,4-benzoxazepin-4(5H)-yl]-5,6,7,8-tetrahydroquinazolin-2-yl}methyl)cyclopentanamine] | ≤ 10 nM
10 | CC(C)(CO)CNS(=O)(=O)c1cc(-c2ccc3c(c2)CN(c2ncnc4c2CC(C)(C)CC4)CCO3)cnc1N [Example 374, 2-amino-5-[4-(6,6-dimethyl-5,6,7,8-tetrahydroquinazolin-4-yl)-2,3,4,5-tetrahydro-1,4-benzoxazepin-7-yl]-N-(3-hydroxy-2,2-dimethylpropyl)pyridine-3-sulfonamide] | 50 to 250 nM
11 | Cc1nc2ncc(-c3ccc4c(c3)CN(c3nc(CNC5CC5)nc5c3CC(C)(C)CC5)CCO4)cc2[nH]1 [Example 599, N-({6,6-dimethyl-4-[7-(2-methyl-1H-imidazo[4,5-b]pyridin-6-yl)-2,3-dihydro-1,4-benzoxazepin-4(5H)-yl]-5,6,7,8-tetrahydroquinazolin-2-yl}methyl)cyclopropanamine] | ≤ 10 nM
